Laboratory results from US20250287948A1, “TOBACCO ALKALOID INSECT REPELLENT IN PLANTS” (Philip Morris Products S.A., priority 2022, published 2025).
Where “and” joins values, the source holds several entries; their conditions need not be identical. Equal values may be shown once.

Legend:
whitefly [1] = assay: Whitefly mortality on treated leaves; type: in vivo; details: concentration 5 percent
Description: (§1) For the purpose of the study, leaf disks were dipped for a total time of 30 seconds into the prepared solutions and left dry for 10 minutes at room temperature. Subsequently, the leaf disks were deposited at the bottom of glass tubes and a minimum of 20 adult whiteflies were introduced into the tubes.
The study also assessed the whitefly mortality rate over the duration of the evaluation period. […]

adult whitefly [2] = assay: Tube test assay: repelling effect on adult whitefly, treated leaf disks (Examples 1-3); type: in vivo
Description: For the purpose of the study, a tube test assay was performed using solutions of anatabine and DEET prepared according to Table 1.
For the purpose of the study, leaf disks were dipped for a total time of 30 seconds into the prepared solutions and left to dry for 10 minutes at room temperature. Subsequently, the leaf disks were deposited at the bottom of glass tubes and a minimum of 20 adult whiteflies were introduced into the tubes. […] The repelling effect of both anatabine and DEET is shown in Table 2 and was calculated by counting the number of whitefly landing on a leaf compared to the placebo control, using the Abbott's formula: […]
The placebo control defines the baseline, against which the repelling effect is then calculated according to the formula above.
For the purpose of the study, a tube test assay was performed using solutions of anatabine at three different concentrations prepared according to Table 3.
The placebo control defines the baseline, against which the repelling effect is then calculated.
as §1, with “left to” for “left”, “tubes. The repelling effect of anatabine at three different concentrations was measured at different time points: after 1 hour, 3 hours, 6 hours. the repelling effect of anatabine at different concentrations is shown in Table 4.” for “tubes.”
A concentration of 5 percent was chosen based on the results of Example 2. […] In the placebo control the leaves were treated with solvent only. The placebo control defines the baseline, against which the repelling effect is then calculated.
as §1

whitefly [3] = assay: Presence of eggs on treated leaves, evaluated visually; type: in vivo; details: concentration 5 percent; evaluation period of up to 6 days (144 hours)
Description: In addition, the presence and amount of eggs on the leaves after a period of 48 hours was evaluated visually and the results are shown in Table 7.
The presence of eggs was visually monitored 24 hours after each infestation time point.

adult whitefly [4] = assay: Tube test assay: repelling effect with whitefly introduced at later infestation time points (Example 4); type: in vivo; details: concentration 5 percent; for repelling effect: remaining 5 days (up to 123 hours) of the evaluation period
Description: The repelling effect of anatabine on adult whitefly was evaluated in a further comparative study which introduced additional whitefly and freshly treated leaves at set evaluation time points. For the purpose of the study, a tube test assay was performed using solutions of anatabine and DEET at a concentration of 5 percent together with a placebo solution, as shown in Table 10. The placebo control defines the baseline, against which the repelling effect is then calculated.
Whitefly were introduced into the tube at infestation time points: 48, 72 and 120 hours and the repelling effect was measured after 3 hours at evaluation time points: 51, 75 and 123 hours.

leaves = assay: Damage to leaves caused by treatment
Description: as §1, with “left to” for “left”
as §1

[5] = concentration 5 percent, evaluation time 0 hour (Example 3)
[6] = concentration 5 percent, evaluation time 6 hour (Example 3)
[7] = concentration 5 percent, evaluation time 24 hour (Example 3)
[8] = concentration 5 percent, evaluation time 48 hour (Example 3)
[9] = infestation time 48 hour, evaluation time 51 hour
[10] = infestation time 72 hour, evaluation time 75 hour
[11] = infestation time 120 hour, evaluation time 123 hour
[12] = concentration 1.0 percent, evaluation time 0 hour
[13] = concentration 1.0 percent, evaluation time 1 hour
[14] = concentration 1.0 percent, evaluation time 3 hour

SMILES: COC(=O)c1ccccc1 [Methyl Benzoate, methyl benzoate, reference compound]
- Mean Mortality (whitefly [1]; evaluation time 0 hour): 0.0%
- Mean Mortality (whitefly [1]; evaluation time 6 hour): 1.4%
- Mean Mortality (whitefly [1]; evaluation time 24 hour): 47.6%
- Mean Mortality (whitefly [1]; evaluation time 48 hour): 77.8%
- drop of the repelling effect (adult whitefly [2]; concentration 5 percent, by the end of the 48 hours evaluation period): ~25%
- Mean Repellence (adult whitefly [2]; [5]): 100%
- Mean Repellence (adult whitefly [2]; [6]): 47.2%
- Mean Repellence (adult whitefly [2]; [7]): 76.8%
- Mean Repellence (adult whitefly [2]; [8]): 76.5%

SMILES: C1=CCC(c2cccnc2)NC1 (stereo not drawn) [Anatabine, anatabine]
- number of eggs observed on the leaves (whitefly [3]): remained low
- Mean Repellence (adult whitefly [4]; [9]): 100%
- Mean Repellence (adult whitefly [4]; [10]): 85.3%
- Mean Repellence (adult whitefly [4]; [11]): 82.2%
- repelling effect (adult whitefly [4]): more than 80%
- Leaves damage (leaves; concentration 5 percent, evaluation time 48 hour): did not cause any damage
- damage to leaves (leaves; concentrations of 5 percent or less (Example 2)): not damaged
- Mean Mortality (whitefly [1]; evaluation time 0 hour): 0.0%
- Mean Mortality (whitefly [1]; evaluation time 6 hour): 7.6%
- Mean Mortality (whitefly [1]; evaluation time 24 hour): 41.3%
- Mean Mortality (whitefly [1]; evaluation time 48 hour): 84.6%
- Mean Repellence (adult whitefly [2]; [12]): 81.3%
- Mean Repellence (adult whitefly [2]; [13]): 90.0%
- Mean Repellence (adult whitefly [2]; [14]): 96.0%
- Mean Repellence (adult whitefly [2]; concentration 1.0 percent, evaluation time 6 hour): 88.9%
- repelling effect (adult whitefly [2]; concentration 1.0 percent, throughout the evaluation period of 6 hours): over 80%
- Mean Repellence (adult whitefly [2]; concentration 2 percent, evaluation time 3 hour): 100%
- Mean Repellence (adult whitefly [2]; concentration 2 percent, evaluation time 6 hour): 100%
- Mean Repellence (adult whitefly [2]; [5]): 100%
- Mean Repellence (adult whitefly [2]; concentration 5 percent, evaluation time 3 hour (Example 2)): 100%
- Mean Repellence (adult whitefly [2]; concentration 5 percent, evaluation time 6 hour (Example 2)): 100%
- Mean Repellence (adult whitefly [2]; [6]): 100%
- Mean Repellence (adult whitefly [2]; [7]): 100%
- Mean Repellence (adult whitefly [2]; [8]): 100%
- repelling effect (adult whitefly [2]; concentration 5 percent, throughout the evaluation period of 48 hours): 100%
- Mean Repellence (adult whitefly [2]; concentration 10 percent, evaluation time 3 hour): 100%
- Mean Repellence (adult whitefly [2]; concentration 10 percent, evaluation time 6 hour): 100%
- repelling effect (adult whitefly [2]; regardless of the concentration (2, 5, 10 percent), 3 and 6 hours): 100%

SMILES: CCN(CC)C(=O)c1cccc(C)c1 [DEET, N,N-Diethyl-meta-toluamide, reference compound]
- drop of efficacy (adult whitefly [4]; after the first 48 hours): ~50%
- Mean Repellence (adult whitefly [4]; [9]): 54.1%
- Mean Repellence (adult whitefly [4]; [10]): 55.9%
- Mean Repellence (adult whitefly [4]; [11]): 48.9%
- repelling effect (adult whitefly [4]): below 50%
- Mean Mortality (whitefly [1]; evaluation time 0 hour): 0.0%
- Mean Mortality (whitefly [1]; evaluation time 6 hour): 1.4%
- Mean Mortality (whitefly [1]; evaluation time 24 hour): 50.0%
- Mean Mortality (whitefly [1]; evaluation time 48 hour): 80.3%
- drop of the repelling effect (adult whitefly [2]; concentration 1.0 percent, after 6 hours): ~40%
- Mean Repellence (adult whitefly [2]; [12]): 87.5%
- Mean Repellence (adult whitefly [2]; [13]): 90.0%
- Mean Repellence (adult whitefly [2]; [14]): 68.0%
- Mean Repellence (adult whitefly [2]; [5]): 100%
- Mean Repellence (adult whitefly [2]; [6]): 100%
- Mean Repellence (adult whitefly [2]; [7]): 94.9%
- Mean Repellence (adult whitefly [2]; [8]): 93% and 93.4%
